Results on six compounds are retold here after EP4011367A1, “COMPOUNDS FOR USE IN THE TREATMENT OF COVID-19” (priority 2020, dated 2022).

The target in the assay is T1, SARS-CoV-2 3CL-Pro (Severe acute respiratory syndrome coronavirus 2, UniProt P0DTD1).
T1 construct: SARS-CoV-2 main protease (3CL-Pro), also termed M-Pro
Description: biochemical. Conditions: for inhibition at 20 µM: read-out: 3CL-Pro Inhibition [%] Primary Screen (20 µM).

Counter-ions that a name gives are not always drawn. Like-named read-outs stand apart in the source and are kept apart here.

As for `Cc1ccccc1N(C)C(=O)c1ccc([S+]([O-])c2nccs2)c([N+](=O)[O-])c1` (centres unmarked) [compound 84, N-methyl-N-(2-methylphenyl)-3-nitro-4-(1,3-thiazol-2-ylsulfinyl)benzamide], the inhibition at 20 µM was 96.7%. For the same compound, the 50% inhibitory concentration (IC50) (read-out: IC50) is 1.87 µM.
On to `CN1CC[C@@]2(C)c3cc(O)ccc3N(C)[C@@H]12` [compound 85, (3aS,8bR)-3,4,8b-trimethyl-2,3a-dihydro-1H-pyrrolo[2,3-b] indol-7-ol], for which the inhibition at 20 µM worked out at 91.5%. Besides, for the setting “read-out: IC50”, the IC50 amounted to 1.99 µM.
For the compound `O=C(O)CCCCCCCCCCCCCCc1ccc(I)cc1` [compound 88, 15-(4-iodophenyl)pentadecanoic acid], the inhibition at 20 µM is 95%. For the same compound, for the setting “read-out: IC50”, the IC50 worked out at 2.25 µM.
On to `COc1cccc(C(=O)CCN[C@@H](C)[C@H](O)c2ccccc2)c1` [compound 89, 3-[2(R)-Hydroxy-1(S)-methyl-2-phenylethylamino]-1-(3-methoxyphenyl)propan-1-one hydrochloride], for which the inhibition at 20 µM came to 90.8%. Further, the IC50 (read-out: IC50) is 2.35 µM.
As for `C[N+]1(C)CCC(OC(=O)C(c2ccccc2)c2ccccc2)CC1` [compound 90, (1,1-dimethylpiperidin-1-ium-4-yl) 2,2-diphenylacetate;iodide], the IC50 came out at 2.36 µM and the inhibition at 20 µM is 97.8%.
For `C=C1C(=O)[C@@]23C(CC[C@@H]1[C@H]2O)[C@@]12CO[C@]3(O)[C@@H](O)[C@@H]1C(C)(C)CC[C@@H]2O` (stereo partly drawn) [compound 91, (1S,5S,8R,9S,10S,11R,15S,18R)-9,10,15,18-tetrahydroxy-12,12-dimethyl-6-methylidene-17-oxapentacyclo[7.6.2.15,8.01,11.0 2,8]octadecan-7-one], the inhibition at 20 µM was determined as 98.2%.
